In brackets after ≈: the same amount, converted by molar mass. Where two headings read alike, the source gives them in different places. Where a SMILES comes first, the peptide text is derived from it. Where no end group is shown, it is not given here.
Assays:
[1] = Antibacterial effect (MIC) after incubation in blood, plasma or saline; assay type: cell-based; details: for MIC in blood: 1 mg/ml added to whole human blood (EDTA); for MIC in plasma after 8 h / MIC in plasma at 48 h: human plasma; for MIC in plasma after 8 h / MIC in saline after 8 h / MIC in blood after 8 h: 8 h incubation at 37°C; for MIC in plasma at 48 h / MIC in saline at 48 h / MIC in blood at 48 h: 48 h incubation at 37°C; for MIC in blood after 8 h / MIC in blood at 48 h: whole human blood (EDTA), 1 mg/ml; for MIC in blood compared to saline (fold higher): whole human blood vs saline
Protocol: To test whether the antibacterial effect of the bacteriocins was reduced in blood, an assay was performed where whole blood was collected from two healthy volunteers, with EDTA as an anticoagulant. Directly after blood sampling each bacteriocin was added to a concentration of 1mg/ml. […] Samples were collected at specific time points and bacteriocin activity was determined using the standard MIC assay as previously described ([Holo et al., 1991]). The experiment was repeated three times and the error bars represent the standard deviation.
The presented MIC values are the average of three experiments. Each bacteriocin was added to whole human blood to reach a concentration of 1 mg/ml. […] RT is short for room temperature.

E. faecium = details: three parallels
Protocol: (§1) Unless otherwise specified the bacterial strains were grown in brain heart infusion (BHI) medium (Oxoid) at 37°C under aerobic conditions without shaking.
(§2) The peptides were stored at −20°C until use. The amino acid sequences of the bacteriocins are […] RPVA and […] […] Bacteriocin activity was determined using a microtiter assay as previously described ([Holo et al., 1991]).

human erythrocytes = assay: Haemolysis assay; details: for Visual haemolysis (redness of supernatant compared to saline): 1 mg/ml in saline; for Visual haemolysis (redness of supernatant compared to saline) / Haemolysis of erythrocytes: 37°C; for Haemolysis of erythrocytes: 0.01, 0.1 and 1 mg/ml in saline, washed human erythrocytes (two volunteers, pooled), 1 h, supernatant absorbance 540 nm, repeated three times
Protocol: To assess the haemolytic effect whole blood was drawn from two healthy human volunteers, pooled and distributed in 1 ml aliquots. The aliquots were spun down at 1,000 × g for 5 min at 4°C to separate erythrocytes from plasma. The erythrocytes were washed three times with saline (0.9% NaCl) and resuspended in 100 μl saline. […] SDS in saline was added as a control, since bacteriocins were solved in saline. The samples were incubated at 37°C for 1 h and then spun down again to remove intact erythrocytes. The supernatant was measured for absorbance at 540 nm in order to measure degree of haemolysis. […] The experiment was repeated three times to allow for statistical analysis.
Whole human blood was mixed with each bacteriocin in saline to a final concentration of 1, 0.1, and 0.01 mg/ml. The samples were incubated at 37°C before the erythrocytes were spun down and the supernatant was read at OD540.

[2] = tested on: E. faecium LMGT 20705 and E. faecium 42 ACA-D6 0237; assay: Effect of autoclaving on antibacterial activity, E. faecium; assay type: cell-based, Enterococcus faecium; details: in MilliQ water with 0.1% TFA, standard autoclaving; MIC against E. faecium LMGT 20705 and 42 ACA-D6 0237
From the text: (§3) A pre-requisite for intravenous administration is complete sterility of the compound ([Paese et al., 2017]). The simplest manner to achieve this is through autoclaving. However, this can cause degradation of the compound and therefore be detrimental to the antibacterial effect. Also, if the compound is degraded into unknown constituents this may cause unintended interactions. Therefore, we exposed the bacteriocins to a standard autoclaving procedure.
(§4) Each bacteriocin was solved in MilliQ water with 0.1% TFA and then autoclaved. […] Strains: 20705 is short for E. faecium LMGT 20705; 0237 for E. faecium 42 ACA-D6 0237; D6 for E. faecalis D6; and MMH594 for E. faecalis MMH594.

[3] = tested on: bacteriocin-resistant enterococcal cells (eep-mutants); details: colonies from inhibition zones of spot-on-lawn assay; 'mostly above'; cross-resistant
Protocol: Bacteriocin resistant mutants were obtained by a spot-on-lawn assay, where liquid bacteriocin was spotted on a lawn of indicator cells, using 10μl of bacteriocin in concentrations 0.5–5 mg/ml. The plates were incubated at 30°C overnight and resistant colonies were selected from the inhibition zones and re-streaked on new plates for isolated colonies. Pure cultures were made and stored in 15% glycerol at −80°C. The eep gene was PCR amplified and sequenced with specific primers: eep in E. faecium was amplified using primers Eepf4F + Eepf4R and sequenced using primers Eepf1R - Eepf6R and Eepf1F - Eepf6F. eep in E. faecalis was amplified using primers Eepfa1R + Eepfa3F and sequenced using primers Eepfa1R - Eepfa3R, Eepf1R - Eepf3R and Eepfa1F - Eepfa3F.
The samples were sent to GATC Biotech, Germany for sequencing. MIC of the resistant mutants was scored using a microtiter assay as previously described ([Holo et al., 1991]).

[4] = tested on: E. faecium wildtype and eep-mutant strains; assay: Lysozyme tolerance MIC assay; assay type: cell-based, Enterococcus faecium
Protocol: To test for lysozyme tolerance the wild type and mutant strains were grown over night and subjected to a standard MIC assay as previously described with twofold dilutions of lysozyme ([Holo et al., 1991]). In addition, a spot-on-lawn assay was performed with 10 μl 250 mg/ml lysozyme spotted on a lawn of cells.

E. faecalis = details: MIC = at least 50% growth inhibition, three parallels
Protocol: as §1, §2

[5] = tested on: E. faecalis D6 and E. faecalis MMH594; assay: Effect of autoclaving on antibacterial activity, E. faecalis; assay type: cell-based, Enterococcus faecalis; details: in MilliQ water with 0.1% TFA, standard autoclaving; MIC against E. faecalis D6 and MMH594
From the text: as §3, §4

[6] = starting value (time not given), average of three experiments

Compound: CC1(C)S[C@@H]2[C@H](NC(=O)[C@H](N)c3ccccc3)C(=O)N2[C@H]1C(=O)O [Ampicillin, reference compound]
- MIC in blood [1, 6]: 1.56 µg/mL (≈ 4.46 µM)
- Loss of activity after 48 h incubation ([1]; 48 h incubation at 37°C in blood and similar conditions): fourfold

Compound: CC[C@H](C)[C@H](NC(=O)[C@H](CCC(=O)O)NC(=O)[C@H](Cc1ccc(O)cc1)NC(=O)[C@H](CCC(N)=O)NC(=O)[C@@H](NC(=O)[C@H](CC(C)C)NC(=O)[C@H](CCCCN)NC(=O)[C@H](CCCCN)NC(=O)[C@@H](NC(=O)[C@@H](NC(=O)[C@@H](NC(=O)CNC(=O)[C@@H](NC(=O)[C@@H]1CCCN1C(=O)[C@H](CC(N)=O)NC(=O)[C@H](Cc1ccccc1)NC(=O)[C@H](CCCCN)NC(=O)[C@H](Cc1ccccc1)NC(=O)[C@H](CCCCN)NC(=O)[C@@H](N)CCSC)[C@@H](C)O)[C@@H](C)O)[C@@H](C)CC)C(C)C)[C@@H](C)O)C(=O)N[C@@H](C)C(=O)N[C@@H](Cc1c[nH]c2ccccc12)C(=O)N[C@@H](Cc1ccccc1)C(=O)N[C@@H](CCCCN)C(=O)N[C@@H](CC(N)=O)C(=O)N[C@@H](CCCCN)C(=O)N[C@@H](Cc1c[nH]cn1)C(=O)NCC(=O)N[C@@H](Cc1ccc(O)cc1)C(=O)N[C@@H](Cc1ccc(O)cc1)C(=O)N1CCC[C@H]1C(=O)N[C@@H](Cc1c[nH]c2ccccc12)C(=O)N[C@@H](CCC(=O)O)C(=O)N[C@H](C(=O)N1CCC[C@H]1C(=O)N[C@@H](CCCNC(=N)N)C(=O)N[C@@H](CS)C(=O)O)[C@@H](C)CC [EntK1, enterocin K1] (H-MKFKFNPTGTIVKKLTQYEIAWFKNKHGYYPWEIPRC-OH; N-terminus and C-terminus assumed)
- MIC of EntK1 (E. faecium; strain E1469 (N, nosocomial), MIC = at least 50% growth inhibition): 0.39 µg/mL
- MIC of EntK1 (E. faecium; strain E3160 (N, nosocomial), MIC = at least 50% growth inhibition): 0.39 µg/mL
- MIC of EntK1 (E. faecium; strain E3449 (N, nosocomial), MIC = at least 50% growth inhibition): 0.39 µg/mL
- MIC of EntK1 (E. faecium; strain E6072 (N, nosocomial), MIC = at least 50% growth inhibition): 0.19 µg/mL
- MIC of EntK1 (E. faecium; strain E6094 (N, nosocomial), MIC = at least 50% growth inhibition): 0.39 µg/mL
- MIC of EntK1 (E. faecium; strain E6856 (N, nosocomial), MIC = at least 50% growth inhibition): 0.39 µg/mL
- MIC of EntK1 (E. faecium; strain E7195 (N, nosocomial), MIC = at least 50% growth inhibition): 0.39 µg/mL
- MIC of EntK1 (E. faecium; strain E7422 (N, nosocomial), MIC = at least 50% growth inhibition): 0.19 µg/mL
- MIC of EntK1 (E. faecium; strain E7660 (N, nosocomial), MIC = at least 50% growth inhibition): 0.39 µg/mL
- MIC of EntK1 (E. faecium; strain E8150 (N, nosocomial), MIC = at least 50% growth inhibition): 0.78 µg/mL
- MIC of EntK1 (E. faecium; strain LMGT 20705 (L, laboratory), MIC = at least 50% growth inhibition): <0.048 µg/mL
- MIC of EntK1 (E. faecium; strain P21 (L, laboratory), MIC = minimum concentration inhibiting growth by at least 50% vs control, 200 μl culture): <0.048 µg/mL
- Visual haemolysis (redness of supernatant compared to saline) (human erythrocytes): did not cause haemolysis
- Haemolysis of erythrocytes (human erythrocytes): non-haemolytic
- MIC in blood [1, 6]: 0.78 µg/mL (≈ 0.171 µM)
- MIC in saline ([1]; 1 mg/ml in saline, first value (time not given), indicator strain not stated, average of three experiments): 0.19 µg/mL (≈ 0.0416 µM)
- MIC in plasma ([1]; added to human plasma, starting value (time not given), average of three experiments): 0.78 µg/mL (≈ 0.171 µM)
- MIC in plasma after 8 h ([1]; average of three experiments): 0.78 µg/mL (≈ 0.171 µM)
- MIC in plasma at 48 h ([1]; average of three experiments): 1.56 µg/mL (≈ 0.342 µM)
- MIC in saline after 8 h ([1]; average of three experiments): stayed at the same level
- MIC in saline at 48 h ([1]; average of three experiments): 0.39 µg/mL (≈ 0.0854 µM)
- MIC ratio blood to plasma ([1]; same at all time points, 37°C): 2 ×
- MIC ratio plasma to saline ([1]; same at all time points, 37°C): 2 ×
- MIC in blood after 8 h ([1]; average of three experiments): approximately 1.56 μg/ml
- MIC in blood at 48 h ([1]; average of three experiments): 3.125 µg/mL (≈ 0.685 µM)
- MIC in blood compared to saline (fold higher) ([1]; 37°C): 4 ×
- Effect of autoclaving on MIC [2]: did not affect
- MIC against cells from resistant colonies [3]: above 25 μg/ml

Compound: CCCCCCCCCCCCOS(=O)(=O)[O-].[Na+] [SDS, reference compound]
- Visual haemolysis (redness of supernatant) (human erythrocytes): complete haemolysis

Compound: Lysozyme
- Lysozyme MIC ([4]; E. faecium 7422c.522del (M, eep-mutant)): 1.95 mg/mL
- Lysozyme MIC ([4]; E. faecium 7422c.C64A (M, eep-mutant)): 1.95 mg/mL
- Lysozyme MIC ([4]; E. faecium E7422 (WT)): 15.63 mg/mL
- Lysozyme MIC ([4]; E. faecium P21 (WT), twofold dilutions of lysozyme): 15.63 mg/mL
- Lysozyme MIC ([4]; E. faecium P21c.G716A (M, eep-mutant)): 0.98 mg/mL
- Lysozyme MIC ([4]; E. faecium P21c.ins7 (M, eep-mutant)): 0.98 mg/mL
- Lysozyme MIC ([4]; E. faecium P21c.ins23 (M, eep-mutant)): 0.98 mg/mL
- Lysozyme MIC ([4]; E. faecium P21c.ins43 (M, eep-mutant)): 0.98 mg/mL
- Lysozyme MIC, wildtype strains ([4]; wildtype strains P21 and E7422): 15.63 mg/mL

Compound: MLAKIKAMIKKFPNPYTLAAKLTTYEINWYKQQYGRYPWERPVA [EntEJ97, enterocin EJ97]
- MIC of EntEJ97 (E. faecalis; strain 62 (L, laboratory)): 1.56 µg/mL
- MIC of EntEJ97 (E. faecalis; strain D6 (L, laboratory)): 0.39 µg/mL
- MIC of EntEJ97 (E. faecalis; strain HH22 (N, nosocomial)): 1.56 µg/mL
- MIC of EntEJ97 (E. faecalis; strain MMH594 (N, nosocomial)): 0.39 µg/mL
- MIC of EntEJ97 (E. faecalis; strain Merz96 (N, nosocomial)): 0.78 µg/mL
- MIC of EntEJ97 (E. faecalis; strain OG1RF (L, laboratory)): 0.78 µg/mL
- MIC of EntEJ97 (E. faecalis; strain Symbioflor (B, probiotic)): 0.39 µg/mL
- MIC of EntEJ97 (E. faecalis; strain T3 (N, nosocomial)): 0.39 µg/mL
- MIC of EntEJ97 (E. faecalis; strain TX0104 (N, nosocomial)): 0.39 µg/mL
- MIC of EntEJ97 (E. faecalis; strain V583 (N, nosocomial; carries EntEJ97 immunity gene)): >25 µg/mL
- Visual haemolysis (redness of supernatant compared to saline) (human erythrocytes): did not cause haemolysis
- Haemolysis of erythrocytes (human erythrocytes): non-haemolytic
- MIC in plasma after 8 h ([1]; average of three experiments): 0.78 µg/mL
- MIC in plasma at 48 h ([1]; average of three experiments): 1.56 µg/mL
- MIC in saline after 8 h ([1]; average of three experiments): 0.39 µg/mL
- MIC in saline at 48 h ([1]; average of three experiments): 0.78 µg/mL
- MIC in blood after 8 h ([1]; average of three experiments): 1.56 µg/mL
- MIC in blood at 48 h ([1]; average of three experiments): 3.125 µg/mL
- MIC in blood compared to saline (fold higher) ([1]; 37°C): 2 ×
- Effect of autoclaving on MIC [5]: did not affect
- MIC against cells from resistant colonies [3]: above 25 μg/ml
